Among the data in patent US20180282347A1, “BICYCLIC COMPOUNDS AS PEST CONTROL AGENTS” (BAYER CROPSCIENCE AKTIENGESELLSCHAFT, priority 2014, published 2018) are chromatographic logP and pest or weed control values, retold here.

Read-outs that look alike come from different tables or passages of the source.

Data set [1] can be described thus: log P by HPLC on reversed-phase (C18) columns, OECD Guideline 117. Type of data set: physicochemical. The settings on record: reversed-phase (C18) HPLC column. As to the method: Calibration is carried out using unbranched alkan-2-ones (having 3 to 16 carbon atoms) with known log P values (log P values determined on the basis of the retention times by linear interpolation between two successive alkanones).

The test system of a further data set is Myzus persicae. Briefly: Myzus persicae - spray test. Type of data set: in vivo. Particulars: foliar, 144 h, application rate 500 g/ha, sprayed Chinese cabbage leaf discs (Brassica pekinensis) infested by all stages, after 6 days, read-out: efficacy in % (100% = all aphids killed). As to the method: Myzus persicae—Spray Test
Solvent: 78 parts by weight of acetone • • 1.5 parts by weight of dimethylformamide
Emulsifier: alkylaryl polyglycol ether
To produce further test concentrations, the formulation is diluted with emulsifier-containing water.
After 6 days, the efficacy in % is determined. 100% means that all the aphids have been killed; 0% means that no aphids have been killed.

Setting [2] is: acidic range, pH 2.7, 0.1% aqueous formic acid and acetonitrile as eluents, read-out: logP [a].
Where [3] appears, read: neutral range, pH 7.8, 0.001 molar aqueous ammonium hydrogencarbonate solution and acetonitrile as eluents, read-out: logP [b].

Turning to `Clc1cc2sc(-c3cccnc3)nc2cn1` [Example 24, 6-Chloro-2-(3-pyridyl)thiazolo[4,5-c]pyridine], the chromatographic logP in data set [1] (setting [2]) turned out to be 1.89.
As for `c1cncc(-c2nc3cnc(N4CCOCC4)cc3s2)c1` [Example 4, 4-[2-(3-Pyridyl)thiazolo[4,5-c]pyridin-6-yl]morpholine], the chromatographic logP turned out to be 1.73 in data set [1] (setting [2]) and 1.94 in data set [1] (setting [3]). Moreover, the pest or weed control at 500 g/ha in the data set on Myzus persicae came to 90%.
As to `O=C(Nc1cccc([S+]([O-])C(F)(F)F)c1)c1cc2sc(-c3cccnc3)nc2cn1` (stereo not shown) [Example 14], the chromatographic logP in data set [1] (setting [2]) came to 2.99.
Regarding `Cc1cc(F)c(-c2cc3sc(-c4cccnc4)nc3cn2)cc1[S+]([O-])CC(F)(F)F` (stereo not shown) [Example 2, 6-[2-Fluoro-4-methyl-5-(2,2,2-trifluoroethylsulphinyl)phenyl]-2-(3-pyridyl)thiazolo [4,5-c]pyridine], the chromatographic logP in data set [1] (setting [2]) is 2.8; in data set [1] (setting [3]), 2.77.
For the compound `CN(C(=O)C1CCS(=O)(=O)C1)c1cc2sc(-c3cccnc3)nc2cn1` (stereo not shown) [Example 10], the chromatographic logP in data set [1] (setting [2]) worked out at 1.37. Further, the pest or weed control at 500 g/ha in the data set with Myzus persicae amounted to 90%.
As to `Cc1ccc(-c2cc3sc(-c4cccnc4)nc3cn2)cc1SCC(F)(F)F` [Example 25], the chromatographic logP in data set [1] (setting [2]) was 4.32; in data set [1] (setting [3]) it was 4.21.
`CS(=O)(=O)CCNC(=O)c1cc2sc(-c3cccnc3)nc2cn1` [Example 30]: in data set [1] (setting [2]), the chromatographic logP was 1.23.
Regarding `Cc1cc(F)c(-c2cc3sc(-c4cccnc4)nc3cn2)cc1SCC(F)(F)F` [Example 1, 6-[2-Fluoro-4-methyl-5-(2,2,2-trifluoroethylsulphanyl)phenyl]-2-(3-pyridyl)thiazolo [4,5-c]pyridine], the chromatographic logP in data set [1] (setting [2]) came to 4.45; in data set [1] (setting [3]), 4.41. In the data set on Myzus persicae, the pest or weed control at 500 g/ha was 90%.
In the case of `FC(F)(F)c1ccn(-c2cc3sc(-c4cccnc4)nc3cn2)n1` [Example 26, 2-(Pyridin-3-yl)-6-[3-(trifluoromethyl)-1H-pyrazol-1-yl][1,3]thiazolo[4,5-c]pyridine], the chromatographic logP in data set [1] (setting [2]) was 3.66; in data set [1] (setting [3]) it was 3.68.
For `O=C(Nc1cc2sc(-c3cccnc3)nc2cn1)c1cccc([S+]([O-])C(F)(F)F)c1` (stereo not shown) [Example 28], in data set [1] (setting [2]), the chromatographic logP was 2.61.
Regarding `Cc1ccc(-c2cc3sc(-c4cccnc4)nc3cn2)cc1[S+]([O-])CC(F)(F)F` (stereo not shown) [Example 5], the chromatographic logP in data set [1] (setting [2]) was 2.79; in data set [1] (setting [3]) it was 2.74.
As to `O=C(Nc1cccc(S(=O)(=O)C(F)(F)F)c1)c1cc2sc(-c3cccnc3)nc2cn1` [Example 19], in data set [1] (setting [2]), the chromatographic logP was determined as 2.09.
The same measure, in the same setting: as for `O=C(Nc1cccc(SC(F)(F)F)c1)c1cc2sc(-c3cccnc3)nc2cn1` [Example 11], the figure is 4.33.
Regarding `CN(C(=O)c1cccc(SC(F)(F)F)c1)c1cc2sc(-c3cccnc3)nc2cn1` [Example 7], in data set [1] (setting [2]), the chromatographic logP is 3.3. In addition, the pest or weed control at 500 g/ha in the data set with Myzus persicae was determined as 90%.
`FC(F)(F)c1cc2sc(-c3cccnc3)nc2cn1` [Example 3, 2-(3-Pyridyl)-6-(trifluoromethyl)thiazolo[4,5-c]pyridine]: the chromatographic logP in data set [1] (setting [2]) and in data set [1] (setting [3]) was 2.32 in each case.
Take `CNC(=O)c1cc2sc(-c3cccnc3)nc2cn1` [Example 20]: the chromatographic logP in data set [1] (setting [2]) stood at 1.35.
`CN(C(=O)c1cccc([S+]([O-])C(F)(F)F)c1)c1cc2sc(-c3cccnc3)nc2cn1` (stereo not shown) [Example 22]: the chromatographic logP in data set [1] (setting [2]) was determined as 2.21. The pest or weed control at 500 g/ha with Myzus persicae is 90%.
On to `CS(=O)(=O)CCC(=O)Nc1cc2sc(-c3cccnc3)nc2cn1` [Example 29], for which the chromatographic logP in data set [1] (setting [2]) was determined as 1.17.
For the compound `c1cncc(-c2nc3cnc(N4CCCC4)cc3s2)c1` [Example 27, 2-(Pyridin-3-yl)-6-(pyrrolidin-1-yl)[1,3]thiazolo[4,5-c]pyridine], the values for the chromatographic logP in data set [1] (setting [2]) and in data set [1] (setting [3]) were 1.38 and 2.61, respectively.
For `c1ccc(-c2cc3sc(-c4cccnc4)nc3cn2)nc1` [Example 6, 6-(2-Pyridyl)-2-(3-pyridyl)thiazolo[4,5-c]pyridine], the chromatographic logP in data set [1] (setting [2]) came out at 1.68; in data set [1] (setting [3]), 2.38.
As to `CN(C(=O)c1cccc(S(=O)(=O)C(F)(F)F)c1)c1cc2sc(-c3cccnc3)nc2cn1` [Example 18], the chromatographic logP in data set [1] (setting [2]) was determined as 1.54. In the data set on Myzus persicae, the pest or weed control at 500 g/ha came to 100%.
In the same order, the values of `CCN(C)C(=O)c1cc2sc(-c3cccnc3)nc2cn1` [Example 21] are 1.52 and 90%.
For `CN(C(=O)CCS(C)(=O)=O)c1cc2sc(-c3cccnc3)nc2cn1` [Example 17, N-Methyl-3-(methylsulphonyl)-N-[2-(pyridin-3-yl) [1,3]thiazolo[4,5-c]pyridin-6-yl]propanamide], in that order: 1.25 and 90%.
